Source: patent US8815891B2, “Tricyclic derivative or pharmaceutically acceptable salts thereof, preparation method thereof, and pharmaceutical composition containing the same” (Je Il Pharmaceutical Co., Ltd., priority 2008, dated 2014)
Structures can show the parent of a compound that is named as a salt.

What follows are compounds tested against PARP-1 enzyme (Homo sapiens (Human), UniProt P09874) (assay: Poly(ADP-ribose)polymerase [PARP-1] enzyme inhibitory activity (Trevigen PARP Assay kit)). Conditions: not given.
Chain of PARP-1 enzyme (P09874 whole entry): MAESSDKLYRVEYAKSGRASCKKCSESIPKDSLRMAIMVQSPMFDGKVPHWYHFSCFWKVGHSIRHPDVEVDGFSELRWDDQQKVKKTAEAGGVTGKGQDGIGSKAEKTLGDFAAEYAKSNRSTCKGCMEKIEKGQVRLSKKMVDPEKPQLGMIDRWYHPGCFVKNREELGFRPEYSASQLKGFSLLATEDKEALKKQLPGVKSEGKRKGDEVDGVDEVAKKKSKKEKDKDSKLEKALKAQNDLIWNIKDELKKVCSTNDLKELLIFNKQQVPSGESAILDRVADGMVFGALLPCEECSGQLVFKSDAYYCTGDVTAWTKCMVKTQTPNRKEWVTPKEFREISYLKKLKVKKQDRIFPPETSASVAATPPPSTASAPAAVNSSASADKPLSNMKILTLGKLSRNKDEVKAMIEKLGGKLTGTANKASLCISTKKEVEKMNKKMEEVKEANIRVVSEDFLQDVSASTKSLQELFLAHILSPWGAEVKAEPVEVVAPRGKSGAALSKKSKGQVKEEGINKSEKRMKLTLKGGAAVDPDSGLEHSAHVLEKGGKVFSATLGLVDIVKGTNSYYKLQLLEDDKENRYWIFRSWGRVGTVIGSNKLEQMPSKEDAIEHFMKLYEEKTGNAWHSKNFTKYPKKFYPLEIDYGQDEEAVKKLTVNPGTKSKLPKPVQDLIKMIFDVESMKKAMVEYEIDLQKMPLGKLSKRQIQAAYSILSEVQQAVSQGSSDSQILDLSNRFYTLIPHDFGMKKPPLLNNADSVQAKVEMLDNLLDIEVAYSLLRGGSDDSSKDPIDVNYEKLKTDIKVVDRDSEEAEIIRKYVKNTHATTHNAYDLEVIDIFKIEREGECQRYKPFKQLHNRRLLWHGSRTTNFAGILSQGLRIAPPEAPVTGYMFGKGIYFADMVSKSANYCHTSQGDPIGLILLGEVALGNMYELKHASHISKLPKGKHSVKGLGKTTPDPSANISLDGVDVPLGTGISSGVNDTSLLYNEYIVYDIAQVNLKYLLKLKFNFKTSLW
Format: biochemical
Procedure: The activity of the compounds according to the present invention to inhibit the PARP-1 enzyme was examined using a PARP Assay kit (4671-096-K) purchased from Trevigen. The assay was performed following a modified previously reported method by Lee et al [Methods Find, Exp. Clin. Pharmacol., 27, 617-622, 2005].
Histone was coated on 384-well plate, which is a small volume PS plate (784101) of Greiner Bio-One, and left at 25° C. for 2 hours. After that, the plate was rinsed four times with PBS (7.5 mM Na2HPO4, 2.5 mM NaH2PO4, 145 mM NaCl, pH 7.4), and in order to prevent non-specific reaction, the Strep-diluent (provided from kit of Trevigen) was added and left at 25° C. for one hour. After one hour, the plate was again rinsed with PBS four times, and the compounds of the Examples in various concentrations were put into reactant containing PARP-1 enzyme (0.12 unit/well), 2×PARP cocktail (1.95 mM NAD^+, 50 uM biotinylated NAD^+, and activated DNA in 50 mM Tris pH 8.0, 25 mM MgCl2) and allowed to react at 25° C. for 30 minutes. After 30 minutes, each well was rinsed with PBS four times, and in order to measure the amount of rybosylation by the PARP enzyme, strepavidin-linked peroxidase (Strep-HRP, 1:1000 diluted) was added and allowed to react at 37° C. for 30 minutes. The plate was rinsed with PBS four times, and TACS-Sapphire substrate was put and allowed to react at 25° C. for 10 minutes so that color reaction occurred. Finally, the reaction was terminated by the addition of 0.2 N HCl. The amount of histone ribosylation formed by PARP-1 enzyme was quantified at 450 nm using Wallac EnVision™ (PerkinElmer Oy, Turku, Finland).

Row | Compound | IC50 [nM]
1 | COc1cc(CN2CCC(=NO)CC2)cc2[nH]c(=O)c3c(c12)NCCC3 [Example 79, 8-{[4-(Hydroxyimino)piperidine-1-yl]methyl}-10-methoxy-1,2,3,4-tetrahydrobenzo[h][1,6]naphthyridine-5(6H)-one trihydrochloride] | 180

Same assay, conditions: PARP-1 enzyme, histone ribosylation, 450 nm; read-out: PARP-1 Inhibitory activity IC50

Row | Compound | IC50 [nM]
2 | CN1CCC(Oc2ccc3[nH]c(=O)c4c(c3c2)N(C)CCC4)CC1 [Example 14, 1-Methyl-9-(1-methylpiperidine-4-yloxy)-1,2,3,4-tetrahydrobenzo[h][1,6]naphthyridine-5(6H)-one dihydrochloride] | > 4000
3 | COc1ccc2[nH]c(=O)c3c(c2c1)N(C)CCC3 [Example 8, 9-Methoxy-1-methyl-1,2,3,4-tetrahydrobenzo[h][1,6]naphthyridine-5(6H)-one hydrochloride] | > 4000
4 | COc1cc(CO)cc2[nH]c(=O)c3c(c12)NCCC3 [Example 105, 8-(Hydroxymethyl)-10-methoxy-1,2,3,4-tetrahydrobenzo[h][1,6]naphthyridine-5(6H)-one hydrochloride] | 190
5 | CN1CCCc2c1c1ccc(CN3CCCCC3)cc1[nH]c2=O [Example 69, 1-Methyl-8-(piperidine-1-ylmethyl)-1,2,3,4-tetrahydrobenzo[h][1,6]naphthyridine-5(6H)-one dihydrochloride] | > 4000
6 | O=c1[nH]c2cc(CNCC(F)(F)F)ccc2c2c1CCCN2 [Example 62, 8-[(2,2,2-Trifuloroethylamino)methyl]-1,2,3,4-tetrahydrobenzo[h][1,6]naphthyridine-5(6H)-one dihydrochloride] | > 4000
7 | CCN1CCCc2c1c1cc(OC)ccc1[nH]c2=O [Example 9, 1-Ethyl-9-methoxy-1,2,3,4-tetrahydrobenzo[h][1,6]naphthyridine-5(6H)-one hydrochloride] | > 4000
8 | CN1CCCc2c1c1ccccc1[nH]c2=O [Example 7, 1-Methyl-1,2,3,4-tetrahydrobenzo[h][1,6]naphthyridine-5(6H)-one hydrochloride] | > 4000
9 | CCN(CC)CCOc1ccc2[nH]c(=O)c3c(c2c1)NCCC3 [Example 26, 9-[2-(Diethylamino)ethoxy]-1,2,3,4-tetrahydrobenzo[h][1,6]naphthyridine-5(6H)-one dihydrochloride] | < 1000

Same assay, conditions: read-out: PARP-1 Inhibitory activity IC50

Row | Compound | IC50 [nM]
10 | COCCN(C)Cc1ccc2c3c(c(=O)[nH]c2c1)CCCN3 [Example 60, 8-{[(2-Methoxyethyl)(methyl)amino]methyl}-1,2,3,4-tetrahydrobenzo[h][1,6]naphthyridine-5(6H)-one dihydrochloride] | 120
11 | COc1cc(CN(C)C2CCOCC2)cc2[nH]c(=O)c3c(c12)NCCC3 [Example 115, 10-Methoxy-8-{[methyl(tetrahydro-2H-pyran-4-yl)amino]methyl}-1,2,3,4-tetrahydrobenzo[h][1,6]naphthyridine-5(6H)-one dihydrochloride] | 410
12 | CN1CCCc2c1c1cc(OCCN3CCCCC3)ccc1[nH]c2=O [Example 30, 1-Methyl-9-[2-(piperidine-1-yl)ethoxy]-1,2,3,4-tetrahydrobenzo[h][1,6]naphthyridine-5(6H)-one dihydrochloride] | 3110
13 | COc1cc(CNCCN2CCOCC2)cc2[nH]c(=O)c3c(c12)NCCC3 [Example 107, 10-Methoxy-8-[(2-morpholinoethylamino)methyl)-1,2,3,4-tetrahydrobenzo[h][1,6]naphthyridine-5(6H)-one trihydrochloride] | 70
14 | CCCNCc1ccc2c3c(c(=O)[nH]c2c1)CCCN3 [Example 46, 8-[(Propylamino)methyl]-1,2,3,4-tetrahydrobenzo[h][1,6]naphthyridine-5(6H)-one dihydrochloride] | 590
15 | CC(C)N(C)Cc1ccc2c3c(c(=O)[nH]c2c1)CCCN3 [Example 59, 8-{[Isopropyl(methyl)amino]methyl}-1,2,3,4-tetrahydrobenzo[h][1,6]naphthyridine-5(6H)-one dihydrochloride] | 190
16 | COc1cc(CNN2CCOCC2)cc2[nH]c(=O)c3c(c12)NCCC3 [Example 96, 10-Methoxy-8-[(morpholinoamino)methyl]-1,2,3,4-tetrahydrobenzo[h][1,6]naphthyridine-5(6H)-one trihydrochloride] | 770
17 | CCc1ccc2c3c(c(=O)[nH]c2c1)CCCN3 [Example 40, 8-Ethyl-1,2,3,4-tetrahydrobenzo[h][1,6]naphthyridine-5(6H)-one hydrochloride] | > 4000
18 | O=c1[nH]c2ccc(OCCN3CCOCC3)cc2c2c1CCCN2 [Example 27, 9-(2-Morpholinoethoxy)-1,2,3,4-tetrahydrobenzo[h][1,6]naphthyridine-5(6H)-one dihydrochloride] | 2640
19 | CCN(C)Cc1ccc2c3c(c(=O)[nH]c2c1)CCCN3C [Example 71, 8-{[Ethyl(methyl)amino]methyl}-1-methyl-1,2,3,4-tetrahydrobenzo[h][1,6]naphthyridine-5(6H)-one dihydrochloride] | 3000
20 | O=c1[nH]c2ccc(OCCN3CCNCC3)cc2c2c1CCCN2 [Example 19, 9-[2-(Piperazine-1yl)ethoxy]-1,2,3,4-tetrahydrobenzo[h][1,6]naphthyridine-5(6H)-one trihydrochloride] | 1480
21 | CCN(CC)CCOc1ccc2[nH]c(=O)c3c(c2c1)NCCC3 [Example 26, 9-[2-(Diethylamino)ethoxy]-1,2,3,4-tetrahydrobenzo[h][1,6]naphthyridine-5(6H)-one dihydrochloride] | 390
22 | CON=C1CCN(Cc2cc(OC)c3c4c(c(=O)[nH]c3c2)CCCN4)CC1 [Example 80, 10-Methoxy-8-[(4-(methoxyimino)piperidine-1-yl)methyl]-1,2,3,4-tetrahydrobenzo[h][1,6]naphthyridine-5(6H)-one trihydrochloride] | 140
23 | COc1cc(CN2CC(C)OC(C)C2)cc2[nH]c(=O)c3c(c12)NCCC3 (centres unmarked) [Example 90, 8-[(2,6-Dimethylmorpholino)methyl]-10-methoxy-1,2,3,4-tetrahydrobenzo[h][1,6]naphthyridine-5(6H)-one dihydrochloride] | 780
24 | N#CCNCc1ccc2c3c(c(=O)[nH]c2c1)CCCN3 [Example 63, 2-[(5-Oxo-1,2,3,4,5,6-hexahydrobenzo[h][1,6]naphthyridine-8-yl)methylamino]acetonitrile dihydrochloride] | 1020
25 | COc1cc(CN(C)CCF)cc2[nH]c(=O)c3c(c12)NCCC3 [Example 94, 8-{[(2-Fluoroethyl)(methyl)amino]methyl}-10-methoxy-1,2,3,4-tetrahydrobenzo[h][1,6]naphthyridine-5(6H)-one dihydrochloride] | 170
26 | COCCN(C)Cc1cc(OC)c2c3c(c(=O)[nH]c2c1)CCCN3 [Example 81, 10-Methoxy-8-{[(2-methoxyethyl)(methyl)amino]methyl}-1,2,3,4-tetrahydrobenzo[h][1,6]naphthyridine-5(6H)-one dihydrochloride] | 110
27 | CCN(CC)Cc1ccc2c3c(c(=O)[nH]c2c1)CCCN3C [Example 68, 8-[(Diethylamino)methyl]-1-methyl-1,2,3,4-tetrahydrobenzo[h][1,6]naphthyridine-5(6H)-one dihydrochloride] | 1190
28 | COc1cc(CN2CCC(=O)CC2)cc2[nH]c(=O)c3c(c12)NCCC3 [Example 78, 10-Methoxy-8-[(4-oxopiperidine-1-yl)methyl]-1,2,3,4-tetrahydrobenzo[h][1,6]naphthyridine-5(6H)-one dihydrochloride] | 110
29 | NCc1ccc2c3c(c(=O)[nH]c2c1)CCCN3 [Example 112, 8-(Aminomethyl)-1,2,3,4-tetrahydrobenzo[h][1,6]naphthyridine-5 (6H)-one dihydrochloride] | 170
